The values that follow come from patent US12065428B2, “Anti-viral compounds” (Aligos Therapeutics, Inc., priority 2021, dated 2024).

Series [1] deals with human beta-coronavirus OC43. The series can be described thus: OC43 coronavirus assay in HeLa cells (cytopathic effect, cell-titer-glo). The series is classed as cell-based.
Series [2] in a line: Cytotoxicity plates without OC43 virus in HeLa cells. The series is classed as cell-based. As to conditions: human, HeLa cells (uninfected), class symbols. Here is the method: The human beta-coronavirus OC43 was purchased from ATCC (Manassas, VA) and propagated using HCT-8 human colorectal epithelial cells (ATCC). HeLa human cervical epithelial cells (ATCC) were used as susceptible host cell lines and were cultured using EMEM media, supplemented with 10% fetal bovine serum (FBS), 1% (v/v) penicillin/streptomycin (P/S), 1% (v/v) HEPES and 1% (v/v) cellgro Glutagro™ supplement (all Corning, Manassas, VA) at 37° C. For the OC43 antiviral assay, 1.5×10^4 HeLa cells per well were plated in 100 μL complete media in white 96-well plates with clear bottoms at 37° C. for up to 24 h to facilitate attachment and allow cells to recover from seeding stresses. Next day, the cell culture medium was removed. Serially diluted compounds in 100 μL assay media (EMEM, 2% FBS, 1% P/S, 1% cellgro Glutagro™ supplement, 1% HEPES) were added to the cells and incubated for 4H at 37° C. in a humidified 5% CO2 incubator. 100 μL of OC43 virus stock was diluted to a concentration known to produce optimal cytopathic effect, inducing 80-90% reduction in cell viability. 96-well plates were incubated for 6 (HeLa) days at 33° C.; each plate contains uninfected control wells as well as virus-infected wells that were not treated with compound. Cytotoxicity plates without the addition of OC43 virus were carried out in parallel. At the end of the incubation period, 100 μL cell culture supernatant was replaced with 100 μL cell-titer-glo reagent (Promega, Madison, WI) and incubated for at least 10 min at rt prior to measuring luminescence. Luminescence was measured on a Perkin Elmer (Waltham, MA) Envision plate reader. Antiviral % inhibition was calculated as follows: [(Compound treated cells infected sample)−(no compound infected control)]/[(Uninfected control)−(no compound infected control)]*100; Using GraphPad (San Diego, CA) prism software version 8.3.1, the antiviral dose-response plot was generated as a sigmoidal fit, log(inhibitor) vs response-variable slope (four parameters) model and the EC50 was calculated which is the predicted compound concentration corresponding to a 50% inhibition of the viral cytopathic effect.

Series [3] has as its system SARS-CoV-2-GHB-03021/2020. The series can be described thus: microbe, parasite or virus in culture. The series is classed as cell-based.
Series [4] has as its target T1, human cathepsin L (Homo sapiens, UniProt P07711).
T1 construct: purchased R&D Systems
The series can be described thus: Cathepsin L assay (Z-FR-AMC fluorescence). The format is biochemical. As to conditions: 10 pM human cathepsin L, 30 mins preincubation; class symbols. Here is the method: For the cathepsin L assay, 10 pM of human cathepsin L (R&D Systems; Minneapolis, MN) was preincubated for 30 mins with test compounds. Reactions were initiated by the addition of a peptide substrate Z-FR-AMC (final concentration 2 μM, Anaspec; Fremont, CA). Fluorescence was measured at 2-minute intervals for 30 mins using a 355/460 excitation/emission filter module on an Envision plate reader (Perkin Elmer; Waltham, MA). The IC50 values were calculated for each assay by fitting the curves using a four-parameter equation in GraphPad Prism.

Series [5] has as its target T2, SARS-Cov-2 3CLpro (Severe acute respiratory syndrome coronavirus 2, UniProt P0DTD1).
T2 construct: SARS-Cov-2 3CLpro and HRV3C Duplex Assay
The series can be described thus: SARS-Cov-2 3CLpro and HRV3C duplex assay (SAMDI-MS): 3CLpro. The series is classed as biochemical.

Series [6] deals with T3, HRV3C (Human rhinovirus 14, UniProt P03303).
T3 construct: SARS-Cov-2 3CLpro and HRV3C Duplex Assay
T3 sequence (P03303 1538-1719): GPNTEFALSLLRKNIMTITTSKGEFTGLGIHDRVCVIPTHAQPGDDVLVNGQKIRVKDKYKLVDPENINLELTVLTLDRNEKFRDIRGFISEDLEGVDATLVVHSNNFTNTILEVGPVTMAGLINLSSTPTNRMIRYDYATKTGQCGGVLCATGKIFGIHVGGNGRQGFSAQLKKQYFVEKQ
The series can be described thus: biochemical. As to conditions: HRV3C, duplex assay, 30 mins preincubation; class symbols; read-out: HRV IC50.

[7] abbreviates: Betacoronavirus 1, 144 h, OC43 in HeLa cells, 6 days at 33° C., class symbols, read-out: EC50.
Where [8] appears, read: 3CLpro, duplex assay, 30 mins preincubation, class symbols, read-out: SARS-Cov-2 IC50.
The mark [9] stands for this setting: Severe acute respiratory syndrome coronavirus 2, Vero C1008, 96 h; read-out: VeroE6 + CP (EC50).

Read-outs that look alike come from different tables or passages of the source. A value given as a limit tells only on which side of the number the result lay.

T1 sequence (P07711 114-333): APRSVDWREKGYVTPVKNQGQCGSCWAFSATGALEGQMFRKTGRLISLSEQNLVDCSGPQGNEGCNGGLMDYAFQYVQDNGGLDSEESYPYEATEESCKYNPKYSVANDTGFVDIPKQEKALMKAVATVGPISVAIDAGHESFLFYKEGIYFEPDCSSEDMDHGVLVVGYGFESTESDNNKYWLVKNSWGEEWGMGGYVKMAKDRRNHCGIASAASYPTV

`O=C(NC1CC1)C(=O)[C@H](C[C@@H]1CCNC1=O)NC(=O)[C@@H]1CC2(CCN1C(=O)[C@H]1C[C@@]13CCCc1ccccc13)CC2` (relative stereo) [Compound 34A, (S)—N—((S)-4-(cyclopropylamino)-3,4-dioxo-1-((S)-2-oxopyrrolidin-3-yl)butan-2-yl)-6-((1S*,2S*)-3′,4′-dihydro-2′H-spiro[cyclopropane-1,1′-naphthalene]-2-carbonyl)-6-azaspiro[2.5]octane-5-carboxamide]: the EC50 in series [1] (setting [7]) was 0.1 to 1 µM; in series [3] (Severe acute respiratory syndrome coronavirus 2, Vero C1008, 96 h, read-out: VeroE6 + CP (EC50)), 1 to 10 µM. This molecule also returned a CC50 at 6 days in series [2] of at least 100 µM. The IC50 is 1 to 10 µM in series [4] and 0.2 to 2 µM in series [5] (setting [8]).

Take `O=C(NC1CC1)C(=O)[C@H](C[C@@H]1CCNC1=O)NC(=O)[C@@H]1CC2(CCN1C(=O)[C@@H]1C[C@]13CCCc1ccccc13)CC2` (relative stereo) [Compound 34B]: the EC50 in series [1] (setting [7]) is 0.1 to 1 µM; in series [3] (setting [9]) it was below 1 µM. In series [2], this molecule had a CC50 at 6 days of 10 to 100 µM. Besides, the IC50 in series [4] was in the range of 1 to 10 µM; in series [5] (setting [8]) it was 0.02 to 0.2 µM.

Regarding `Cn1ncc2c1CC(C(=O)N1CCC3(CC3)C[C@H]1C(=O)NC(C[C@@H]1CCNC1=O)C(=O)C(=O)NC1CC1)CC2` (stereo partly drawn) [Compound 14, (5S)—N-(4-(cyclopropylamino)-3,4-dioxo-1-((S)-2-oxopyrrolidin-3-yl)butan-2-yl)-6-(1-methyl-4,5,6,7-tetrahydro-1H-indazole-6-carbonyl)-6-azaspiro[2.5]octane-5-carboxamide], the EC50 in series [1] (Betacoronavirus 1, OC43, HeLa) is above 10 µM; in series [3] (setting [9]), 10 to 100 µM. This molecule also registered a CC50 at 6 days in series [2] of at least 100 µM. In addition, the figures for the IC50 in series [4], in series [6] and in series [5] (setting [8]) were at least 10 µM, 0.2 to 2 µM and 0.02 to 0.2 µM, respectively.

Take `Cc1ccc2cc(C(=O)N3CCC4(CC4)C[C@H]3C(=O)N[C@@H](C[C@@H]3CCNC3=O)C(=O)C(=O)NC3CC3)sc2c1` [Compound 15, (3S)—N-cyclopropyl-3-{[(5S)-6-(6-methyl-1-benzothiophene-2-carbonyl)-6-azaspiro[2.5]octan-5-yl]formamido}-2-oxo-4-[(3S)-2-oxopyrrolidin-3-yl]butanamide]: the EC50 was 0.1 to 1 µM in series [1] (setting [7]) and below 1 µM in series [3] (setting [9]). In addition, the CC50 at 6 days in series [2] is at least 100 µM. Further, the IC50 in series [4] is 1 to 10 µM; in series [6], 2 to 20 µM; in series [5] (setting [8]), below 0.02 µM.

Turning to `O=C(NC1CC1)C(=O)[C@H](C[C@@H]1CCNC1=O)NC(=O)[C@@H]1CC2(CCN1C(=O)c1ccc3c(c1)OCO3)CC2` [Compound 16, (3S)-3-{[(5S)-6-(2H-1,3-benzodioxole-5-carbonyl)-6-azaspiro[2.5]octan-5-yl]formamido}-N-cyclopropyl-2-oxo-4-[(3S)-2-oxopyrrolidin-3-yl]butanamide], the EC50 in series [1] (setting [7]) and in series [3] (setting [9]) was 1 to 10 µM in each case. This molecule also returned a CC50 at 6 days in series [2] of at least 100 µM. Further, the values for the IC50 in series [4], in series [6] and in series [5] were at least 10 µM, 2 to 20 µM and 0.02 to 0.2 µM, respectively.

As to `Cn1nc(C(=O)N2CCC3(CC3)C[C@H]2C(=O)NC(C[C@@H]2CCNC2=O)C(=O)C(=O)NC2CC2)cc1-c1ccccc1` (stereo partly drawn) [Compound 17, (5S)—N-(4-(cyclopropylamino)-3,4-dioxo-1-((S)-2-oxopyrrolidin-3-yl)butan-2-yl)-6-(1-methyl-5-phenyl-1H-pyrazole-3-carbonyl)-6-azaspiro[2.5]octane-5-carboxamide], the EC50 in series [1] (setting [7]) and in series [3] (setting [9]) was 1 to 10 µM in each case. In addition, the CC50 at 6 days in series [2] is at least 100 µM. Besides, the IC50 in series [4] is at least 10 µM; in series [6], 2 to 20 µM; in series [5] (setting [8]) it was 0.2 to 2 µM.

Consider `O=C(NC1CC1)C(=O)C(C[C@@H]1CCNC1=O)NC(=O)[C@@H]1CC2(CCN1C(=O)c1noc(-c3ccccc3)n1)CC2` (stereo partly drawn) [Compound 18, N-cyclopropyl-2-oxo-4-[(3S)-2-oxopyrrolidin-3-yl]-3-{[(5S)-6-(5-phenyl-1,2,4-oxadiazole-3-carbonyl)-6-azaspiro[2.5]octan-5-yl]formamido}butanamide], for which the EC50 in series [1] (setting [7]) and in series [3] (setting [9]) was 1 to 10 µM in each case. In addition, in series [2], the CC50 at 6 days is at least 100 µM. Also, the IC50 in series [4] was at least 10 µM; in series [6], 0.2 to 2 µM; in series [5] (setting [8]) it was 0.02 to 0.2 µM.
